Reference: patent publication US8440610B2, “Mapkap kinase-2 as a specific target for blocking proliferation of P53-defective cells” (Massachusetts Institute of Technology, priority 2004, dated 2013)

Tests used:
U2OS cells = assay: FACS cell cycle analysis (PI, phospho-histone H3) in U2OS cells; format: cell-based, human; conditions: MAPKAP kinase-2 depleted U2OS cells; 10 μM drug, nocodazole added three hours later, thirty hours
Description: Asynchronous MAPKAP kinase-2 or luciferase shRNA knockdown cells were mock treated or exposed to doxorubicin for thirty hours, and cell cycle progression was monitored by FACS. In one set of experiments, the spindle poison nocodazole was added to the media three hours after addition of doxorubicin, to cause any cells progressing through the cell cycle to arrest in mitosis. DNA content was monitored by PI staining; phospho-histone-H3 staining was used as an indicator of mitotic entry. As shown in the left panels of FIG. 14A, treatment of control luciferase shRNA knockdown cells with doxorubicin led to the accumulation of cells with 4N DNA content, and a lack of phospho-histone-H3 staining in either the absence or presence of nocodazole. The cells expressing the luciferase shRNAs behaved identically to the untransfected doxorubicin-treated control U2OS cell population (FIG. 24B), with the prominent 4N DNA component and the absence of phospho-histone-H3 staining indicative of an intact G2/M checkpoint.
In contrast to the G2/M checkpoint response observed in doxorubicin-treated cells, treatment with the DNA intra-strand cross-linker cisplatin caused U2OS cells to predominantly accumulate in the G1 and S phases of the cell cycle over the subsequent thirty hours (FIG. 24C). RNA interference was used to investigate the role of MAPKAP kinase-2 in this process. […] Strikingly, when nocodazole was added three hours following cisplatin addition, the MAPKAP kinase-2 depleted cells accumulated in a 4N DNA containing peak with ˜42% of the cells staining strongly for phospho-histone H3. Identical results were obtained in cells treated with a second unrelated siRNA sequence against MAPKAP kinase-2.
FACS analysis. UV irradiation was performed at 254 nm (UV-C) using a Stratalinker 2400 (Stratagene). U2OS cells were fixed in 70% ethanol overnight at −20° C., permeabilized with PBS containing 0.2% Triton X-100 for twenty minutes at 4° C., blocked with 2% FBS in PBS, and incubated with 1 μg of anti-phospho-histone H3 per 10^6 cells for sixty minutes on ice. […]

p53−/− MEFs = assay: FACS cell cycle analysis (PI, phospho-histone H3) in p53−/− MEFs; format: cell-based, mouse; conditions: MK2 depleted p53−/− MEFs; 10 μM drug, nocodazole added three hours later, thirty hours
Description: FACS analysis. UV irradiation was performed at 254 nm (UV-C) using a Stratalinker 2400 (Stratagene). U2OS cells were fixed in 70% ethanol overnight at −20° C., permeabilized with PBS containing 0.2% Triton X-100 for twenty minutes at 4° C., blocked with 2% FBS in PBS, and incubated with 1 μg of anti-phospho-histone H3 per 10^6 cells for sixty minutes on ice. Following washing, cells were incubated with FITC-conjugated goat anti-rabbit antibody (diluted 1:500) for thirty minutes on ice, washed, and resuspended in PBS containing 50 μg/ml PI for twenty minutes immediately prior to FACS analysis. Analysis was performed using a Becton Dickinson FACS machine with CellQuest software.
To investigate the molecular mechanisms involved in MK2 dependent responses to DNA lesions, we examined cell cycle profiles of control and MK2 depleted p53^−/− MEFs. Asynchronous MK2- or control knock-down p53^−/− MEFs were mock treated or exposed to doxorubicin for thirty hour, and cell cycle distribution monitored by FACS. In one set of experiments the spindle poison nocodazole was added to the media three hours after addition of doxorubicin, to cause any cells progressing through the cell cycle to arrest in mitosis. DNA content was monitored by PI staining; phospho-histone-H3 staining was used as an indicator of mitotic entry. […]

SMILES	cells staining positively for phospho-histone H3 (U2OS cells) [%]	cells staining positively for phospho-histone H3 (p53−/− MEFs) [%]
COc1cccc2c1C(=O)c1c(O)c3c(c(O)c1C2=O)C[C@@](O)(C(=O)CO)C[C@@H]3O[C@H]1C[C@H](N)[C@H](O)[C@H](C)O1 [doxorubicin]	36.3	28.5
N.N.[Cl][Pt][Cl] [cisplatin]	~42	~25
